Results from the NIST ThermoML archive (doi:10.1016/j.tca.2009.07.002).

Assay: xn = mol fraction of the nth substance listed
Settings: 101 kPa, Liquid, Vibrating tube method

CCCCO [butan-1-ol] + CCCCCCC
mass density [kg/m3]
Settings | 288.15 K | 293.15 K | 298.15 K | 303.15 K | 308.15 K | 313.15 K | 318.15 K | 323.15 K
x1 = 0.0691 | 692.997 | 688.732 | 684.439 | 680.112 | 675.754 | 671.356 | 666.921 | 662.457
x1 = 0.0999 | 695.43 | 691.164 | 686.867 | 682.541 | 678.179 | 673.778 | 669.334 | 664.851
x1 = 0.1495 | 699.575 | 695.309 | 691.013 | 686.688 | 682.323 | 677.919 | 673.469 | 668.978
x1 = 0.1701 | 701.352 | 697.089 | 692.795 | 688.469 | 684.105 | 679.699 | 675.246 | 670.749
x1 = 0.2 | 703.971 | 699.708 | 695.42 | 691.091 | 686.729 | 682.324 | 677.872 | 673.376
x1 = 0.2497 | 708.55 | 704.296 | 700.016 | 695.692 | 691.331 | 686.93 | 682.482 | 677.987
x1 = 0.2507 | 708.652 | 704.392 | 700.109 | 695.793 | 691.434 | 687.035 | 682.589 | 678.099
x1 = 0.2999 | 713.405 | 709.158 | 704.88 | 700.571 | 696.222 | 691.828 | 687.391 | 682.909
x1 = 0.3501 | 718.522 | 714.283 | 710.016 | 705.715 | 701.373 | 696.989 | 692.557 | 688.076
x1 = 0.3998 | 723.818 | 719.595 | 715.341 | 711.055 | 706.726 | 702.355 | 697.935 | 693.471
x1 = 0.4497 | 729.369 | 725.163 | 720.925 | 716.653 | 712.34 | 707.984 | 703.577 | 699.118
x1 = 0.4999 | 735.288 | 731.11 | 726.892 | 722.64 | 718.343 | 714.006 | 709.618 | 705.176
x1 = 0.5516 | 741.637 | 737.484 | 733.291 | 729.062 | 724.793 | 720.478 | 716.114 | 711.695
x1 = 0.6497 | 754.667 | 750.57 | 746.442 | 742.276 | 738.07 | 733.819 | 729.516 | 725.167
x1 = 0.6999 | 761.833 | 757.773 | 753.681 | 749.559 | 745.39 | 741.178 | 736.918 | 732.609
x1 = 0.7502 | 769.372 | 765.348 | 761.298 | 757.214 | 753.09 | 748.919 | 744.697 | 740.419
x1 = 0.7999 | 777.249 | 773.267 | 769.263 | 765.22 | 761.14 | 757.016 | 752.839 | 748.617
x1 = 0.8498 | 785.51 | 781.573 | 777.613 | 773.62 | 769.591 | 765.519 | 761.397 | 757.222
x1 = 0.9006 | 794.437 | 790.548 | 786.635 | 782.692 | 778.716 | 774.698 | 770.631 | 766.522
x1 = 1 | 813.373 | 809.573 | 805.762 | 801.923 | 798.053 | 794.147 | 790.231 | 786.238
